In PubChem BioAssay (NCI):
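Five compound concentrations were applied to cells in 96-well plates for 48 hours; endpoints were derived by simple linear interpolation of the resulting dose-response curve. Definition used: TGI = concentration required for complete inhibition of growth.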

How the values were obtained:
Experiment in all cases: NCI tumour cell line growth inhibition, 48 h
[1] = tested on: HCC-2998 colon
[2] = tested on: HCT-116 colon
[3] = tested on: HOP-92 NSCLC
[4] = tested on: IGROV1 ovarian
[5] = tested on: K-562 leukemia
[6] = tested on: KM12 colon
[7] = tested on: MCF7 breast
[8] = tested on: MOLT-4 leukemia
[9] = tested on: NCI-H522 lung
[10] = tested on: NCI/ADR-RES ovarian
[11] = tested on: OVCAR-4 ovarian
[12] = tested on: RPMI-8226 leukemia
[13] = tested on: SF-268 CNS
[14] = tested on: SF-295 CNS
[15] = tested on: SF-539 CNS
[16] = tested on: SK-MEL-2 melanoma
[17] = tested on: SK-MEL-5 melanoma
[18] = tested on: SNB-75 CNS
[19] = tested on: UACC-62 melanoma
[20] = tested on: UO-31 renal

How did the TGI [1] turn out when CCOC(=O)C1=NN(c2ccccc2)C2=CC(C)=NN(C)C(=S)N21 was run?
Its TGI is over 100 µM.

What about the TGI [2] of the same molecule?
The TGI was over 100 µM.

And the TGI [3]?
Its TGI is over 100 µM.

And the TGI [4]?
Its TGI is over 100 µM.

What about the TGI [5] of the same molecule?
The TGI was over 100 µM.

What about the TGI [6] of the same molecule?
The TGI was over 100 µM.

What about the TGI [7] of the same molecule?
Its TGI is over 100 µM.

What about the TGI [8] of the same molecule?
The TGI was over 100 µM.

And the TGI [9]?
Its TGI is over 100 µM.

And the TGI [10]?
The TGI was over 100 µM.

What about the TGI [11] of the same molecule?
The TGI was over 100 µM.

And the TGI [12]?
The TGI was over 100 µM.

What about the TGI [13] of the same molecule?
Its TGI is over 100 µM.

And the TGI [14]?
Its TGI is over 100 µM.

What about the TGI [15] of the same molecule?
The TGI was over 100 µM.

What about the TGI [16] of the same molecule?
The TGI was over 100 µM.

And the TGI [17]?
The TGI was over 100 µM.

What about the TGI [18] of the same molecule?
The TGI was over 100 µM.

And the TGI [19]?
Its TGI is over 100 µM.

And the TGI [20]?
Its TGI is over 100 µM.

CC[C@](C)(O)C(=O)O[C@H]1C(=O)O[C@@H]2C[C@H]3C(C)=C[C@H](O)[C@@H](O)[C@]3(C)[C@H]3[C@@]4(O)OC[C@]32[C@@H]1[C@@H](C)[C@H]4O was tested. Which TGI [1] did it give?
The TGI was 71.4 µM.

What about the TGI [2] of the same molecule?
The TGI was 89.2 µM.

And the TGI [3]?
Its TGI is 83.1 µM.

And the TGI [4]?
The TGI was 52.5 µM.

And the TGI [5]?
Its TGI is 48.8 µM.

What about the TGI [6] of the same molecule?
Its TGI is 109 µM.

And the TGI [7]?
The TGI was 39 µM.

What about the TGI [8] of the same molecule?
The TGI was 27.5 µM.

And the TGI [9]?
The TGI was 9.8 µM.

What about the TGI [10] of the same molecule?
The TGI was over 205 µM.

What about the TGI [11] of the same molecule?
Its TGI is 185 µM.

What about the TGI [12] of the same molecule?
The TGI was 24.4 µM.

What about the TGI [13] of the same molecule?
Its TGI is 207 µM.

What about the TGI [14] of the same molecule?
Its TGI is 116 µM.

What about the TGI [15] of the same molecule?
The TGI was 47.2 µM.

What about the TGI [16] of the same molecule?
Its TGI is 118 µM.

What about the TGI [17] of the same molecule?
The TGI was 30 µM.

And the TGI [18]?
Its TGI is 86.5 µM.

And the TGI [19]?
The TGI was 94.2 µM.

What about the TGI [20] of the same molecule?
Its TGI is 284 µM.
